This is an account of results in patent US12618044B2, “Specification of functional cranial placode derivatives from human pluripotent stem cells” (MEMORIAL SLOAN-KETTERING CANCER CENTER, priority 2013, dated 2026).

Where no end group is shown, it is not given here.

Format in all cases: cell-based, human
The subject of assay [1] is SIX1::GFP cells. The assay can be described thus: High throughput screen for compounds that promote placode induction. The note with it: added at day 3, imaged at day 6. As for the experimental part: High throughput screen for compounds that promote placode induction: SIX1::GFP cells were cultured according to the PIP-E6 protocol. 1280 test compounds were screened for their ability to enhance placode induction. Each test compound was added to the cell culture media at day 3, and cells were imaged to determine the level of placode induction at day 6. (FIG. 60).

Assay [2] has as its system SIX1::H2B-GFP reporter cells. Description: PIP-E6 placode induction in E8/E6 media. From the text: PIP protocol using E8/E6 cell culture media: E8/E6 cell culture media (Essential8™/Essential6™, Nat Methods. 2011 May; 8(5):424-9) comprises the ingredients DMEM/F12, ascorbic acid, selenum, insulin, NaHCO3, transferrin, FGF2 and TGFβ. […] The present example describes a modified PIP protocol that utilizes the BMP deficient E8/E6 media.
A Six1 knock in GFP reporter cell line (SIX1::H2B-GFP) was developed to monitor when cells have been transformed to a placode fate. (FIGS. 41A-41E). Culturing the reporter cells in E8/E6 media according to the KSR PIP protocol described herein, in which cells were cultured in media comprising the SMAD inhibitors SB431542 and LDN193189, wherein LDN193189 was withdrawn after 2 days of culture, yielded low levels of placode cells after 11 days of culture. (FIGS. 42A-42B). BMP4, which is not present in E8/E6 media, is necessary for cells to differentiate into non-neural ectoderm and placode, as evidenced by expression of the marker AP2. (FIGS. 43A-43C). […] (FIGS. 44A-44C). […] (FIGS. 45A-45B). […] (FIGS. 46 and 47). Although the yield of induced placode cells was low using the PIP-E6 protocol, the induction was highly consistent compared to the KSR PIP protocol. (FIG. 48).
In order to make the trigeminal placode fate the default fate when culturing using the PIP-E6 protocol, PIP-E6 was modified by adding CHIR (Wnt activator) to the culture protocol. […] (FIGS. 49A-49B). FIG. 50 depicts the pituitary, lens and trigeminal placodes that can be induced using the PIP-E6 culture protocol.

Assay [3] deals with hESC. The assay can be described thus: Placode induction from hESC (N-SB versus PIP, SIX1 expression). Conditions: for placode fate: high concentrations, starting at day 3 of PIP. As for the experimental part: A timed withdrawal of the BMP inhibitor Noggin during N-SB differentiation was also tested to determine if placodal fates could be induced via derepressing endogenous BMP signaling. A time course analysis was performed during which Noggin was removed at different time points of the N-SB protocol (FIG. 28A).
Withdrawal of the BMP inhibitor noggin during N-SB differentiation may enhance the emergence of placodal fates by de-repressing endogenous BMP signaling. To this end, a time course study was performed by removing noggin at different time points of the NSB protocol (FIG. 11A) while monitoring the induction of placodal marker (FIG. 11B) trophoectodermal, neurectodermal by qRT-PCR analysis at day 11 of differentiation. Withdrawal of noggin at day 2 or 3 of differentiation yielded efficient induction of Six1 while noggin withdrawal at day 1 of differentiation lead to the induction of Eya1 in the absence of Six1 expression.
Neural Induction and placode induction: Feeder-free neural induction was carried out as previously described (Chambers et al., 2009). Briefly, hESCs cultures were disaggregated using accutase for 20 minutes, washed using hESCs media and pre-plated on gelatin for 1 hour at 37° C. in the presence of ROCK inhibitor to remove MEFs. The non-adherent hESCs were washed and plated on matrigel at a density of 60,000 cells/cm2 on matrigel (BD) coated dishes in MEF conditioned hESCs media (CM) spiked with 10 ng/mL of FGF-2 and ROCK-inhibitor. The ROCK inhibitor was withdrawn after 24 hours, and hESCs were allowed to expand in CM for 2 days or until they were 95% confluent. The initial differentiation media conditions included knock out serum replacement (KSR) media with 10 μM TGF-β inhibitor (SB431542, Tocris) and 250 ng/mL of Noggin (R&D). Upon day 5 of differentiation, increasing amounts of N2 media (25%, 50%, and 75%) were added to the KSR media every two days while maintaining […] of Noggin and TGF-β inhibitor. Similar results could be obtained when using KSR-free conditions (E6 medium (Chen et al., 2011)) following adjustments in BMP signaling; data not shown). For placode induction, Noggin was removed at day3 of differentiation. In some experiments, BMP-4 (R&D 50 ng/ml), Noggin (R&D 250 ng/ml), DKK-1 (R&D 100 ng/ml), FGF8 (R&D 50 ng/ml), SU5402 (Tocris 10 μM), Wnt-3a (R&D 50 ng/ml), DAPT (Tocris, 10 μM), CHIR99021 (Stemgent, 3 μM), Cyclopamine (Tocris, 10 μM), Sonic Hedgehog (C25II-R&D 100 ng/ml), and Purmorphamine (Stemgent, 1 μM), were added.
Microscopy, antibodies, and flow cytometry: Cells were fixed using 4% paraformaldehyde for 15 minutes, washed with PBS, permeabilized using 0.3% Triton X in PBS, and blocked using 1% BSA. Primary antibodies used for microscopy included PAX6 (Covance, DSHB), TUJ1 (Covance), BRN3A (Chemicon), AP2a (DSHB), HNK1 (Sigma), PAX3 (DSHB), SIX1 (ABR, Atlas), ISL1 (DSHB), PERIPHERIN (Santa Cruz), GSU (gift A. McNeilly), CRYAB (Chemicon), DACH1 (Proteintech), EYA1 (gift Kawakami), E-CADHERIN (Abcam), FSH (gift A. McNeilly), GATA2 (Abcam), chick GFP (Abcam), hNCAM (Santa Cruz), GLUTAMATE (Sigma), KRT14 (Labvision), SIX6 (Atlas), LHX3 (Abcam), OVOL2 (Aviva), TFAP2A (DSHB), FOXG1 (gift E. Lai), hCA (Stem Cells), and Ki67 (Sigma). Appropriate Alexa 488, Alexa 568, Alexa 647 secondary antibodies (Molecular Probes) and/or DAPI counterstaining was used for visualization. For Flow Cytometry, cells were mechanically dissociated after exposure to accutase for 20 min at 25° C. To eliminate dead cell populations in FACS analysis, we used DAPI or 7-AAD according to manufacturer's recommendation. Cells were analyzed using FACScan (Becton Dickinson) and FlowJo software (Tree Star, Inc.).

Assay [4] deals with pre-placode cells. Description: Lens placode specification (PITX3 qRT-PCR). The note with it: added days 7-11, read at day 16. Here is the method:
The impact of four developmental signaling pathways on lens placode specification was tested by using activators and inhibitors of BMP, FGF, WNT, and Hedgehog signaling. To quantify the induction of lens placode fate, the lens precursor marker PITX3 expression was monitored at day 16 of differentiation (FIG. 37B). […] A role for BMPs and FGFs has been previously proposed in developmental studies in the chick (Sjödal et al., 2007). […] The characteristic layering of lens fibers (FIG. 36H, right panel) mimicked the structural properties of developing lens in vivo.

Assay [5] concerns SIX1::GFP cells. The assay can be described thus: PIP-E6 pituitary induction and hormone release. Conditions: for number of putative pituitary stem cells (Ki67 and Sox2): days 6-14. As for the experimental part:
Induction of anterior pituitary gland cells: Pituitary placode cells were induced by culturing SIX1::GFP cells according to the PIP-E6 protocol, wherein pituitary factors SHH, FGF8, FGF10 and/or hypothalamus CM were supplemented in the culture media from days 6-15.
Induction of anterior pituitary gland cells: SIX1::GFP hPSCs were cultured according to a modified PIP-E6 protocol, wherein pituitary factors such as FGF8, FGF10 or SHH, etc., were included in the culture media from days 6-14. Cells were sorted based on expression of SIX1::GFP, and were replated at a concentration of 10,000 cells/cm^2 on PO/L/F, and were incubated with small molecule/growth factors for 2 weeks. (FIG. 68). […] (FIG. 69).

The subject of assay [6] is hESC derived FP. Description: A/P respecification of hESC derived FP by caudalizing factors. Here is the method:
For MS5 induction, established methods previously reported were used (Perrier et al., 2004). Feeder free neural induction was carried out as previously described (Chambers et al., 2009). Briefly, hESCs cultures were disaggregated using accutase for 20 minutes, washed using hESCs media and pre-plated on gelatin for 1 hour at 37° C. in the presence of ROCK inhibitor to remove MEFs. The nonadherent hESCs were washed and plated on matrigel at a density of 20,000 cells/cm2 on matrigel (BD) coated dishes in MEF conditioned hESCs media (CM) spiked with 10 ng/mL of FGF-2 and ROCK-inhibitor. The ROCK inhibitor was withdrawn, and hESCs were allowed to expand in CM for 3 days or until they were nearly confluent. The initial differentiation media conditions included knock out serum replacement (KSR) media with […] TGF-b inhibitor (SB431542, Tocris) and 500 ng/mL of Noggin (R&D). Upon day 5 of differentiation, increasing amounts of N2 media (25%, 50%, 75%) was added to the KSR media every two days while maintaining 500 ng/mL of Noggin and TGF-b inhibitor. For FP induction, Sonic C25II was added at 200 ng/ml. In some experiments, DKK-1 (R&D 100 ng/ml) FGF8 (R&D 50 ng/ml), Wnt-1 (Peprotech 50 ng/ml) and Retinoic Acid (R&D 1 uM) were added.
The inventors contemplated the use of SIX6 as a putative marker of anterior FP identity. Thus SIX6 status of the hESC derived FP was used to mark respecification in response to known caudalizing agents such as FGF8, Wnt-1, and Retinoic Acid. Each of these caudalizing factors was added in combination with SHH and the resulting tissue was assessed for expression of the FP markers FOXA2 and NETRIN-1, the AN marker BF1, and putative anterior FP marker SIX6. FP generation was found not compromised in the presence of caudalizing factors.
The inventors discovered that different factors had varied effects on marker expression (FIG. 20C).
As mentioned above, studies had identified different enhancers that directed SHH expression to different A/P region along ventral axis (Jeong et al., 2008). […] In the absence of caudalizing factors (SHH C25II alone), LacZ expression was observed herein following transfection with the SBE2 but not the SBE1 enhancer supporting the hypothesis that hESC derived FP is anterior by default (FIG. 20D). In contrast SBE2 activity was abolished upon treatment with Wnt1 or FGF8 while SBE1 activity was induced under these conditions.

For `CN1CCC(c2c[nH]c3ccc(O)cc23)CC1` [BRL-54443], the placode induction entry in assay [1] is “promoting placode induction”.

With `Cc1c[nH]c(-c2cnc(NCCNc3ccc(C#N)cn3)nc2-c2ccc(Cl)cc2Cl)n1` [CHIR99021], in assay [2] (days 2-4 of the PIP-E6 protocol), the default placode fate entry was “induction of trigeminal placodes”. For the same molecule, the placode fate entry in assay [3] is “suppressed placode”.

As to `O.c1cnc2c(c1)ccc1cccnc12` [Phenanthroline monohydrate], in assay [1], the placode induction entry is reported as “promoting placode induction”.

Consider `Cc1c[nH]c(/C=C2\C(=O)Nc3ccccc32)c1CCC(=O)O` [SU5402], for which, in assay [4], the PITX3 expression result is on record as “significantly induced”. Also, in assay [3] (day 3-11 of PIP), the TFAP2A expression result was “maintaining” and the “emergence of SIX1+ clusters” value is recorded as “suppressed”. Also, the “placode marker (SIX1) gene expression” value in assay [3] (day 11) is listed as “complete loss”. The “KRT14 mature keratinocyte marker” value in assay [3] (long-term cultures (day 42-60)) is “robust induction”.

In the case of FGF2: growth factor, in assay [5], the “number of putative pituitary stem cells (Ki67 and Sox2)” value is given as “may increase”.

Turning to “somatocrinin: external stimulus causing growth hormone release (YADAIFTNSYRKVLGQLSARKLLQDIMSRQQGESNQERGARARL; ends and bridges not checked; UniProt P01286 32-75, looked up)”, the “growth hormone (GH) release” value in assay [5] (hormone expressing cells) is “released growth hormone (GH)”.

B1: FGF8: caudalizing factor / pituitary patterning factor (protein, UniProt P55075 23-233, looked up)
Fibroblast growth factor 8: QEGPGRGPALGRELASLFRAGREPQGVSQQHVREQSLVTDQLSRRLIRTYQLYSRTSGKHVQVLANKRINAMAEDGDPFAKLIVETDTFGSRVRVRGAETGLYICMNKKGKLIAKSNGKGKDCVFTEIVLENNYTALQNAKYEGWYMAFTRKGRPRKGSKTRQHQREVHFMKRLPRGHHTTEQSLRFEFLNYPPFTRSLRGSQRTWAPEPR
As to B1, the “number of putative pituitary stem cells (Ki67 and Sox2)” value in assay [5] is recorded as “may increase”. Further, in assay [6] (SHH enhancer LacZ construct), the SBE1 activity result is reported as “induced” and the SBE2 activity entry was “abolished”. The SIX6 expression result in assay [6] (in combination with SHH) is reported as “significant reduction”. In addition, the ASCL1 expression result in assay [3] (pre-placode cells) is reported as “enriches”.

B2: BMP4: recombinant bone morphogenetic protein-4, activator of BMP signaling (protein, UniProt P12644 293-408, looked up)
Bone morphogenetic protein 4: SPKHHSQRARKKNKNCRRHSLYVDFSDVGWNDWIVAPPGYQAFYCHGDCPFPLADHLNSTNHAIVQTLVNSVNSSIPKACCVPTELSAISMLYLDEYDKVVLKNYQEMVVEGCGCR
B2: the cell fate induced result in assay [2] (5 ng/ml, with SB431542, withdrawn after 3 days) is given as “placode development”; in assay [2] (20 ng/ml), “induction of non-neural ectoderm”. Further, in assay [2] (5 ng/ml, withdrawn after 3 days versus 1 or 2 days, 6 total days), the “yield of placode precursors” value was “highest yield of placode precursors”. Also, the PITX3 expression result in assay [4] is “significantly induced”. The placode fate entry in assay [3] is listed as “suppressed placode”. Also, the CDX2 induction result in assay [3] (in the presence of SB) is given as “triggered induction of CDX2”.
